According to the supplement of paper PMC11061612:

Experiments:
Assay in all cases: Bliss excess, mean over the matrix (fraction); higher = more synergy
[1] = system: BE-13 (T-Lymphoblastic Leukemia)
Outline: (§1)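 After 24 hours at 37°C and 5% CO2 in 1536-well plates, cells in DMEM/F12 or RPMI plus 10% FBS received two-drug dose matrices for 72 hours. Viability came from CellTiter-Glo 2.0 luminescence and was scaled as inhibition, anchored at 0 by vehicle wells and at 1 by blank wells. Combination Emax is taken as the second-highest inhibition in the matrix, and Bliss excess as the observed combination effect less EA + EB − EA·EB, with EA and EB the single-agent effects.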

[2] = system: BE2-M17 (Neuroblastoma)
Outline: as §1

[3] = system: CAL-33 (Oral Cavity Carcinoma)
Outline: as §1

[4] = system: CAL-72 (Osteosarcoma)
Outline: as §1

[5] = system: ESS-1 (Other Solid Carcinomas)
Outline: as §1

[6] = system: HeLa (Cervical Carcinoma)
Outline: as §1

[7] = system: HuH-7 (Hepatocellular Carcinoma)
Outline: as §1

[8] = system: KMRC-20 (Kidney Carcinoma)
Outline: as §1

[9] = system: KS-1 (Glioblastoma)
Outline: as §1

[10] = system: KYAE-1 (Esophageal Adenocarcinoma)
Outline: as §1

[11] = system: L-428 (Hodgkin's Lymphoma)
Outline: as §1

[12] = system: LCLC-97TM1 (Non-Small Cell Lung Carcinoma)
Outline: as §1

[13] = system: LNZTA3WT4 (Low Grade Glioma)
Outline: as §1

[14] = system: LOXIMVI (Melanoma)
Outline: as §1

[15] = system: LS-123 (Colorectal Carcinoma)
Outline: as §1

[16] = system: NCI-H1568 (Lung Adenocarcinoma)
Outline: as §1

[17] = system: NCI-H209 (Small Cell Lung Carcinoma)
Outline: as §1

[18] = system: OV-56 (Ovarian Carcinoma)
Outline: as §1

[19] = system: OVCAR-5 (Ovarian Carcinoma)
Outline: as §1

Structure (SMILES) | Bliss excess [1] | Bliss excess [2] | Bliss excess [3] | Bliss excess [4] | Bliss excess [5] | Bliss excess [6] | Bliss excess [7] | Bliss excess [8] | Bliss excess [9] | Bliss excess [10] | Bliss excess [11] | Bliss excess [12] | Bliss excess [13] | Bliss excess [14] | Bliss excess [15] | Bliss excess [16] | Bliss excess [17] | Bliss excess [18] | Bliss excess [19]
COc1cccc2c1C(=O)c1c(O)c3c(c(O)c1C2=O)C[C@@](O)(C(=O)CO)C[C@@H]3O[C@H]1C[C@H](N)[C@H](O)[C@H](C)O1 [Doxorubicin] + Cc1cc2ncnn2cc1Nc1ncc2c(n1)n(C1CCOCC1)c(=O)n2C [AZD7648] (first compound max 1 µM, 7x7, partner max 10 µM) | 0.0553 | 0.0514 | 0.0998 | -0.0164 | 0.0112 | 0.0511 | -0.0513 | 0.046 | 0.0176 | 0.0242 | 0.0276 | 0.0332 | 0.016 | 0.0582 | 0.035 | -0.0357 | 0.129 | 0.0345 | -0.0058
C=CCn1c(=O)c2cnc(Nc3ccc(N4CCN(C)CC4)cc3)nc2n1-c1cccc(C(C)(C)O)n1 [AZD1775] + C[C@@H]1COCCN1C2=NC(=NC(=C2)C3(CC3)[S@](=N)(=O)C)C4=C5C=CNC5=NC=C4 [AZD6738] (first compound max 1 µM, partner max 10 µM) | 0.0159 | 0.103 | 0.0324 | -0.0277 | -0.015 | 0.0883 | 0.0027 | 0.0174 | -0.0042 | 0.026 | 0.0246 | -0.0323 | 0.0076 | -0.0609 | -0.0519 | -0.0346 | 0.0422 | 0.0141 | 0.0146
COc1cccc(OCCCN)c1-c1cc(Nc2cnc(C#N)cn2)n[nH]1 [Prexasertib] + C=CCn1c(=O)c2cnc(Nc3ccc(N4CCN(C)CC4)cc3)nc2n1-c1cccc(C(C)(C)O)n1 [AZD1775] (first compound max 1 µM, partner max 1 µM) | 0.0317 | 0.098 | 0.117 | 0.0055 | 0.0299 | 0.0651 | 0.0469 | -0.0104 | -0.0244 | 0.103 | 0.0109 | 0.057 | 0.133 | 0.0467 | -0.0296 | 0.0284 | 0.0444 | -0.0015 | 0.044
CN(C)CCCOc1ccc(-c2ccc3ncc4c(c3c2)n(C2CCOCC2)c(=O)n4C)cn1 [AZD0156] + C=CCn1c(=O)c2cnc(Nc3ccc(N4CCN(C)CC4)cc3)nc2n1-c1cccc(C(C)(C)O)n1 [AZD1775] (first compound max 1 µM, partner max 1 µM) | -0.0329 | -0.0429 | -0.0497 | -0.0492 | -0.124 | -0.0364 | -0.0497 | -0.0707 | -0.0268 | -0.0143 | 0.0106 | -0.0179 | -0.0561 | 0.0604 | -0.0229 | -0.0493 | -0.0624 | -0.0459 | -0.0043
COc1cccc(OCCCN)c1-c1cc(Nc2cnc(C#N)cn2)n[nH]1 [Prexasertib] + C[C@@H]1COCCN1C2=NC(=NC(=C2)C3(CC3)[S@](=N)(=O)C)C4=C5C=CNC5=NC=C4 [AZD6738] (first compound max 1 µM, 7x7, partner max 10 µM) | -0.0018 | -0.0172 | 0.0296 | -0.0244 | 0.0056 | 0.005 | 0.0392 | 0.0013 | -0.0298 | 0.0651 | -0.0418 | -0.0351 | -0.0422 | -0.0165 | -0.0242 | -0.0668 | -0.0214 | 0.0148 | 0.0185
COc1cccc(OCCCN)c1-c1cc(Nc2cnc(C#N)cn2)n[nH]1 [Prexasertib] + CN(C)CCCOc1ccc(-c2ccc3ncc4c(c3c2)n(C2CCOCC2)c(=O)n4C)cn1 [AZD0156] (first compound max 1 µM, 7x7, partner max 1 µM) | -0.0338 | -0.0185 | -0.0018 | -0.0922 | -0.0668 | 0.0079 | -0.0335 | -0.0382 | -0.0131 | 0.0184 | -0.0144 | -0.0439 | -0.0321 | 0.0398 | -0.0387 | -0.032 | 0.0016 | -0.0442 | -0.0273
